Consider eleven molecules from ChEMBL document CHEMBL1201862, “PubChem BioAssay data set” (2004).

As a reminder, the GI50 is the concentration that inhibits growth by half.

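Protocol summary: plate cells (96-well), add compound at 5 concentrations, incubate 48 h, interpolate endpoints linearly. Here, GI50 denotes the concentration required for 50% inhibition of growth.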 Active and inactive are the calls of the source. Cut-off read from the data, not from the text of the source: active = GI50 up to about 1.1 µM and inactive = higher. Some results are limits rather than exact numbers.

Among the test systems are SNB-19; RXF 393; HOP-92; ACHN; LOX IMVI; MOLT-4; OVCAR-3; COLO 205; HOP-62; SF-268; SN12C; HCT-15; UACC-257; HCC 2998; SK-OV-3; T47D; K562; SF-539; EKVX; CAKI-1.
Holding throughout (assay): DTP human tumour cell line panel, 48 h

Take `O=C(O)CCC(=O)c1ccc2c(c1)C(C(=O)O)CC2` (stereo unspecified): the GI50 in the experiment on SNB-19 is > 100 µM (inactive); with RXF 393 it was 0.286 µM (active); in the experiment with HOP-92, > 100 µM (inactive); with ACHN it was > 100 µM (inactive); with LOX IMVI, > 100 µM (inactive); in the experiment with MOLT-4 it was > 100 µM (inactive). Moreover, the GI50 is > 100 µM (inactive) in the experiment on OVCAR-3; > 100 µM (inactive) in the experiment with COLO 205; > 100 µM (inactive) in the experiment on HOP-62; > 100 µM (inactive) in the experiment on SF-268; > 100 µM (inactive) in the experiment on SN12C; > 100 µM in the experiment with HCT-15. In addition, the GI50 in the experiment with UACC-257, with HCC 2998, with SK-OV-3, in the experiment on T47D, in the experiment with K562 and in the experiment with SF-539 was > 100 µM (inactive) throughout. In addition, in the experiment on EKVX, the GI50 is > 100 µM (inactive).

Consider `N=C1OC(CN2CCN(c3ccccc3)CC2)CN1C(=O)Nc1ccccc1` (stereo unspecified), for which the GI50 with SNB-19, with RXF 393, in the experiment with HOP-92, in the experiment with ACHN, with CAKI-1 and with LOX IMVI was > 100 µM (inactive) in each case. The GI50 in the experiment with MOLT-4 was > 100 µM (inactive); in the experiment on COLO 205, > 100 µM (inactive); with HOP-62 it was > 100 µM (inactive); with SF-268 it was > 100 µM (inactive); in the experiment with SN12C it was > 100 µM (inactive); with HCT-15, > 100 µM. Also, the GI50 in the experiment with UACC-257 is > 100 µM (inactive); in the experiment with HCC 2998 it was > 100 µM (inactive); in the experiment with SK-OV-3, > 100 µM (inactive); in the experiment with T47D, > 100 µM (inactive); in the experiment with K562, 60.5 µM (inactive); in the experiment with EKVX it was > 100 µM (inactive).

With `CN(C)CCn1c(CO)nc2c1c(=O)n(C)c(=O)n2C`, the GI50 with SNB-19, in the experiment with RXF 393, in the experiment on ACHN, with CAKI-1, with LOX IMVI and in the experiment with OVCAR-3 was > 100 µM (inactive) each time. Besides, the GI50 in the experiment on COLO 205 was > 100 µM (inactive); in the experiment with HOP-62, > 100 µM (inactive); in the experiment on SF-268, > 100 µM (inactive); in the experiment with SN12C, > 100 µM (inactive); in the experiment on HCT-15 it was > 100 µM; in the experiment on UACC-257, > 100 µM (inactive). Besides, the GI50 with HCC 2998, with SK-OV-3, in the experiment on T47D, in the experiment on K562, with SF-539 and in the experiment with EKVX was > 100 µM (inactive) throughout.

With `C[C@]12CC[C@@H]3c4cc(Br)c(O)c(Br)c4CC[C@H]3[C@@H]1CCC2=O`, the GI50 with RXF 393 is 16.7 µM (inactive); in the experiment on HOP-92 it was 34.9 µM (inactive); in the experiment with ACHN, 13.5 µM (inactive); with CAKI-1, 18.9 µM (inactive); with LOX IMVI, 20.4 µM (inactive); with MOLT-4, 20.6 µM (inactive). The GI50 was 16.4 µM (inactive) in the experiment with OVCAR-3; > 100 µM (inactive) with COLO 205; 23.3 µM (inactive) with SF-268; 27.7 µM (inactive) in the experiment with SN12C; 12.4 µM in the experiment on HCT-15; 20.9 µM (inactive) in the experiment on UACC-257. For the same molecule, the GI50 in the experiment on HCC 2998 is 13.9 µM (inactive); with SK-OV-3, 31.4 µM (inactive); with T47D, 33.9 µM (inactive); with K562, 18 µM (inactive); with SF-539, 19.9 µM (inactive); with EKVX, 25.5 µM (inactive).

Take `CC(C)(C)OC(=O)NCCCCC1NC(=O)[C@@H]2Cc3c([nH]c4ccccc34)C(C3CCCCC3)N2C1=O` (stereo partly specified): the GI50 with SNB-19 was 57.7 µM (inactive); in the experiment with RXF 393, 4.23 µM (inactive); in the experiment on HOP-92, 26 µM (inactive); in the experiment on ACHN it was 45.6 µM (inactive); with CAKI-1 it was 56.6 µM (inactive); with LOX IMVI it was 31.2 µM (inactive). In addition, the GI50 was 5.28 µM (inactive) in the experiment on MOLT-4; 10.6 µM (inactive) in the experiment on OVCAR-3; 20.2 µM (inactive) in the experiment on COLO 205; 41.4 µM (inactive) in the experiment with HOP-62; 54.1 µM (inactive) in the experiment with SF-268; 39.1 µM (inactive) in the experiment on SN12C. Moreover, the GI50 in the experiment on HCT-15 was 36 µM; with UACC-257, 35.7 µM (inactive); in the experiment with HCC 2998 it was 13.9 µM (inactive); in the experiment on SK-OV-3 it was 53.7 µM (inactive); in the experiment on T47D, 12.9 µM (inactive); with K562, 30.8 µM (inactive). In the experiment with EKVX, the GI50 was 33.7 µM (inactive).

On to `Nc1cc2ncnn2c(SCC(=O)N/N=C/C(Br)=C\c2ccccc2)n1`, for which the GI50 in the experiment with SNB-19 is 31 µM (inactive); with RXF 393, 15.8 µM (inactive); in the experiment on ACHN it was 16.9 µM (inactive); with CAKI-1 it was 17.9 µM (inactive); in the experiment on LOX IMVI, 16 µM (inactive); with MOLT-4, 12.4 µM (inactive). Moreover, the GI50 is 18.5 µM (inactive) in the experiment with OVCAR-3; 19.1 µM (inactive) with COLO 205; 33.6 µM (inactive) with HOP-62; 17.3 µM (inactive) in the experiment on SN12C; 18.1 µM in the experiment on HCT-15; 9.62 µM (inactive) in the experiment with UACC-257. Besides, the GI50 with HCC 2998 was 19.9 µM (inactive); in the experiment with T47D, 3.49 µM (inactive); with K562 it was 12.8 µM (inactive); in the experiment on SF-539, 16.7 µM (inactive); in the experiment on EKVX it was 22.5 µM (inactive).

`COC(=O)c1ccccc1NC(=O)/C(=N\NC(C)(C)C)C(C#N)c1nc(-c2ccc([N+](=O)[O-])cc2)cs1` (stereo unspecified): the GI50 in the experiment on SNB-19, in the experiment on RXF 393, in the experiment on HOP-92, in the experiment on ACHN, in the experiment on CAKI-1 and in the experiment on LOX IMVI was > 100 µM (inactive) throughout. The GI50 was > 100 µM (inactive) with MOLT-4; > 100 µM (inactive) in the experiment on OVCAR-3; > 100 µM (inactive) in the experiment on COLO 205; > 100 µM (inactive) in the experiment on SF-268; > 100 µM (inactive) in the experiment with SN12C; > 100 µM in the experiment with HCT-15. The GI50 with UACC-257, in the experiment on HCC 2998, in the experiment on SK-OV-3, in the experiment on T47D, in the experiment on K562 and in the experiment with SF-539 was > 100 µM (inactive) throughout. Also, the GI50 with EKVX is > 100 µM (inactive).

As to `CC1CCN(c2nnc(Cl)cc2C(=O)c2ccccc2)CC1`, the GI50 is 26.9 µM (inactive) with SNB-19; 16.9 µM (inactive) in the experiment on RXF 393; 16 µM (inactive) in the experiment with HOP-92; 49.9 µM (inactive) in the experiment on ACHN; 17.9 µM (inactive) in the experiment with CAKI-1; 29.4 µM (inactive) with LOX IMVI. The GI50 with MOLT-4 was 20.7 µM (inactive); in the experiment with OVCAR-3, 22.4 µM (inactive); in the experiment with COLO 205, 21.9 µM (inactive); with HOP-62, 28.4 µM (inactive); in the experiment on SF-268, 1.67 µM (inactive); with SN12C it was 50.7 µM (inactive). Also, the GI50 was 35.6 µM in the experiment on HCT-15; 18.7 µM (inactive) in the experiment with UACC-257; 30.5 µM (inactive) with HCC 2998; 31.5 µM (inactive) in the experiment with T47D; 53 µM (inactive) in the experiment with K562; 25.4 µM (inactive) in the experiment with SF-539. Also, in the experiment on EKVX, the GI50 is 29.8 µM (inactive).

Take `O=C(NNC(=S)Nc1ccc(Br)cc1)c1cc(-c2ccccc2)nc2ccccc12`: the GI50 was 27.2 µM (inactive) in the experiment with SNB-19; 18.4 µM (inactive) in the experiment on RXF 393; 20 µM (inactive) in the experiment with HOP-92; 34.8 µM (inactive) in the experiment on ACHN; 29.8 µM (inactive) in the experiment with CAKI-1; 22.1 µM (inactive) with MOLT-4. Besides, the GI50 in the experiment with OVCAR-3 was 17 µM (inactive); in the experiment on COLO 205 it was 22.6 µM (inactive); in the experiment with HOP-62, 20 µM (inactive); in the experiment with SF-268, 33.3 µM (inactive); in the experiment on SN12C it was 19.1 µM (inactive); with HCT-15, 24 µM. The GI50 with UACC-257 was 23.2 µM (inactive); with HCC 2998, 16.8 µM (inactive); in the experiment with SK-OV-3, 25.2 µM (inactive); in the experiment with T47D, 17.1 µM (inactive); in the experiment on K562, 25.2 µM (inactive); with SF-539 it was 16.6 µM (inactive).

On to `O=C(O)c1cccc(/[As]=[As]\c2cccc(C(=O)O)c2)c1` (stereo unspecified), for which the GI50 is 32.2 µM (inactive) in the experiment on SNB-19; 26.9 µM (inactive) in the experiment with RXF 393; 18.7 µM (inactive) with HOP-92; 73.3 µM (inactive) in the experiment with ACHN; 16.4 µM (inactive) with CAKI-1; 18.2 µM (inactive) with LOX IMVI. Also, the GI50 is 30.3 µM (inactive) in the experiment with MOLT-4; 34.4 µM (inactive) with OVCAR-3; 33 µM (inactive) in the experiment with COLO 205; 35.2 µM (inactive) in the experiment with HOP-62; 29.3 µM (inactive) with SF-268; 38.2 µM (inactive) with SN12C. The GI50 in the experiment with HCT-15 was 36.3 µM; in the experiment with UACC-257 it was 40.9 µM (inactive); in the experiment with HCC 2998, 57.7 µM (inactive); in the experiment on T47D, 34.9 µM (inactive); in the experiment with K562, 34.7 µM (inactive); in the experiment with SF-539 it was 16.6 µM (inactive). Besides, in the experiment on EKVX, the GI50 is 59.8 µM (inactive).

As to `COc1ccc(C2(CC(C)C)CCNC2)cc1OC` (stereo unspecified), the GI50 is > 100 µM (inactive) with SNB-19; 41.9 µM (inactive) with RXF 393; 19.8 µM (inactive) in the experiment with HOP-92; > 100 µM (inactive) in the experiment on ACHN; > 100 µM (inactive) in the experiment on CAKI-1; > 100 µM (inactive) with LOX IMVI. The GI50 in the experiment with COLO 205 was > 100 µM (inactive); in the experiment with HOP-62 it was 82.2 µM (inactive); with SF-268, 78.7 µM (inactive); with SN12C it was > 100 µM (inactive); with HCT-15, > 100 µM; in the experiment on UACC-257 it was > 100 µM (inactive). The GI50 in the experiment on HCC 2998 is 12.9 µM (inactive); with SK-OV-3 it was > 100 µM (inactive); in the experiment on T47D, 31.5 µM (inactive); in the experiment with K562, > 100 µM (inactive); with EKVX, 86.1 µM (inactive).
